Laboratory results: patent publication US10258556B2, “Anti-aging peptide, its composition and method of using the same” (priority 2017, dated 2019)
Residues, ends and D or L forms follow the SMILES beside them.

Tested on: CCD-966SK fibroblast cells
Assay: MTT assay (cell viability)
Type: cell-based, human
Details: peptide at different concentrations, 24, 48 and 72 hours, FIG. 3
Protocol: CCD-966SK was skin fibroblast cells isolated from human breast and was purchased from BCRC (Bioresource Collection and Research Center, Hsinchu, Taiwan). It was cultured in Dulbecco's Modified Eagle Medium (DMEM) containing 10% (v/v) FBS and penicillin/streptomycin (100 IU/[…]) in 5% CO2 at 37° C.
The cells (3×10^3) in 100 μl complete DMEM were seeded in 96-well plates with or without MUC20 peptide NO.10. Ten microliters of 5 mg/ml 3-(4,5-dimethyl-2-thiazolyl)-2,5-diphenyl-2H-tetrazolium bromide solution (MTT; Sigma) was added to each well and incubated at 37° C. for 3 hours. After that, 100 μl 10% SDS in 0.01N HCl was added to dissolve the MTT formazan crystals. The resultant optical density was measured by spectrophotometry at dual wavelengths, 550 and 630 nm.
The cell viability of the CCD-966SK fibroblast cells was analyzed by MTT assays. The results were obtained from three independent experiments. The results of the cells treated with the peptide of SEQ ID NO: 1 for 24 hours (upper panel), 48 hours (middle panel), and 72 hours (lower panel) were shown in FIG. 3.

C[C@H](NC(=O)[C@H](CCC(=O)O)NC(=O)[C@@H](NC(=O)[C@H](CO)NC(=O)[C@H](CC(=O)O)NC(=O)[C@@H]1CCCN1)[C@@H](C)O)C(=O)N[C@@H](CCCCN)C(=O)O [peptide of SEQ ID NO: 1, ProAspSerThrGluAlaLys] (H-PDSTEAK-OH)
viability of the CCD-966SK fibroblast cells: did not significantly affect viability
